Values joined by “and” are separate entries in the source; they are usually repeats but may differ in a detail not shown here. Equal values may be shown once.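 Step 1: Grow cells in 96-well plates. Step 2: Expose to compound for 48 hours at 5 concentrations. Step 3: Interpolate endpoints linearly; if unreached, use highest concentration. GI50 marks 50% less growth. TGI is the concentration that stops growth completely.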
How the values were obtained:
Assay in all cases: inhibition of tumour cell growth, NCI panel, 48 h
[1] = tested on: KM12 colon
[2] = tested on: HOP-62 NSCLC
[3] = tested on: SK-MEL-2 melanoma
[4] = tested on: PC-3 prostate
[5] = tested on: SN12C renal
[6] = tested on: SK-OV-3 ovarian
[7] = tested on: UO-31 renal
[8] = tested on: SR leukemia
[9] = tested on: RPMI-8226 leukemia
[10] = tested on: CAKI-1 renal
[11] = tested on: LOX IMVI melanoma

Structure (SMILES) | TGI [1] | TGI [2] | TGI [3] | TGI [4] | TGI [5] | TGI [6] | TGI [7] | TGI [8] | TGI [9] | TGI [10] | TGI [11] | GI50 [3] | GI50 [9]
CC(=O)N1N=C(c2ccc3ccccc3c2O)CC1c1ccc(N(C)C)cc1 (configuration not stated) | > 100 µM | > 100 µM | > 100 µM | > 100 µM | > 100 µM | > 100 µM | > 100 µM | > 100 µM | > 100 µM | > 100 µM |  |  | 
COC(=O)/C(=N\N)C(C(=O)C(=O)Nc1nc(=S)[nH][nH]1)c1nc2ccc([N+](=O)[O-])cc2[nH]c1=O (configuration not stated) | > 100 µM | > 100 µM | > 100 µM |  | > 100 µM | > 100 µM | > 100 µM | > 100 µM | > 100 µM | > 100 µM | > 100 µM |  | 
Cn1c(N)c(/C=C/C(=O)Oc2ccccc2)c(=O)n(C)c1=O | > 100 µM | 40.9 µM | > 100 µM | > 100 µM | > 100 µM | > 100 µM | > 100 µM |  | > 100 µM | 63.8 µM | > 100 µM |  | 
O=C1c2c(O)cccc2Cc2cc(CO)cc(O)c21 |  | 11.9 µM |  | 4.28 µM | 16.9 µM |  | 4.97 µM | 12.1 µM | 7.34 µM |  |  |  | 
C/C=C1/C(=Cc2[nH]c(C=c3[nH]/c(=C/C4=NC(=O)C(CC)=C4C)c(C)c3CCC(=O)O)c(CCC(=O)O)c2C)NC(=O)C1C (configuration not stated) | > 50 µM | 15.9 µM | 20.3 µM |  | > 50 µM | > 50 µM | 20.1 µM | > 50 µM |  | > 50 µM | 2.61 µM |  | 
COC(=O)C(=O)C(C(C)=O)C(=O)C(=O)Nc1ccc(C)cc1C (configuration not stated) | > 100 µM | > 100 µM | > 100 µM |  | > 100 µM | > 100 µM | > 100 µM | > 100 µM | > 100 µM | > 100 µM | > 100 µM |  | 
C/C(=N/N)c1sc(-c2nc(C)c(/C(C)=N\N)s2)nc1C | > 100 µM | > 100 µM | > 100 µM |  | > 100 µM | > 100 µM | > 100 µM | 36.4 µM | > 63.9 µM | > 100 µM | > 75.2 µM |  | 
CN1N=C(c2ccccc2)c2cc(Cl)ccc2N=C1N/N=C/c1ccc(N(C)C)cc1 | > 100 µM | > 100 µM |  | > 100 µM | > 100 µM | > 100 µM | > 100 µM | > 100 µM | > 100 µM | > 100 µM |  |  | 
CC(C)(C)OC(=O)C1/C(=C/CBr)CN1C(=O)OC(C)(C)C (configuration not stated) |  | 31.9 µM |  | 28.1 µM | 27 µM | 38.2 µM | 33.1 µM |  | 18.1 µM | 30.5 µM | 11.4 µM |  | 
COc1ccc(NC(/C(C(=O)C(=O)/C=C(\O)c2ccccc2)=C(\O)c2ccccc2)c2ccc(OC)cc2)cc1 (configuration not stated) | > 100 µM | > 100 µM | 89 µM | > 100 µM | > 100 µM | > 100 µM | > 100 µM | > 100 µM | 69.1 µM | > 100 µM |  |  | 
O=S(=O)(CF)OCCCCOS(=O)(=O)CF |  |  | > 100 µM |  | > 100 µM | > 100 µM | > 100 µM |  | > 100 µM | > 100 µM | > 100 µM |  | 
COc1cc2c(cc1O)C(=O)O[C@@H]1CC=C3CCN(C)[C@H]3[C@H]21 | > 25 µM | > 25 µM | > 25 µM | > 25 µM | > 25 µM | > 25 µM | > 25 µM | > 25 µM | > 25 µM | > 25 µM |  |  | 
COC1(C)CNCC(C)(C)NC(=O)C(C)(OC)CNCC(C)(C)NC1=O (configuration not stated) | > 100 µM | > 100 µM | > 100 µM |  | > 100 µM | > 100 µM | > 100 µM |  | > 100 µM | > 100 µM | > 100 µM |  | 
CCCCCC(/C=C/c1ncccc1OCCCCCC(=O)O)=N\NC1=NCCN1 | > 100 µM | > 100 µM | > 100 µM |  | > 100 µM | > 100 µM | > 100 µM | > 100 µM | > 100 µM | > 100 µM | > 100 µM |  | 
CCOC(=O)c1ccn2c(c1)c(C#N)c1nc3ccccc3nc12 | > 100 µM | > 100 µM | > 100 µM |  | > 100 µM | > 100 µM | > 100 µM | > 100 µM | > 100 µM | > 100 µM | > 100 µM |  | 
N#CCCN(CCC#N)c1ccc(/C=C(/NC(=O)Nc2ccccc2Cl)NC(=O)c2cc([N+](=O)[O-])ccc2Cl)cc1 | > 100 µM | > 100 µM | > 100 µM |  | > 100 µM | > 100 µM | > 100 µM | > 100 µM | > 100 µM | > 100 µM | > 100 µM |  | 
O=C1C2C3C=C4c5ccccc5N(c5ccccc5)C4([C@@H]2C(=O)N1c1ccc(F)cc1)[C@H]1C(=O)N(c2ccc(F)cc2)C(=O)[C@@H]31 (some centres not stated) | > 100 µM |  | > 100 µM |  | > 100 µM |  | 88.6 µM | > 100 µM | > 100 µM |  | > 100 µM |  | 
CCCCCCCCCCCCCCCCCCOCC(O)CO (configuration not stated) | > 25 µM | 22.7 µM | > 25 µM |  | > 25 µM | > 25 µM | 25 µM |  | > 25 µM | > 5.39 µM | > 25 µM |  | 
Cc1cc(C)c(C(=O)C(C)C(c2ccccc2)c2ccc(Cl)cc2)c(C)c1 (configuration not stated) | > 100 µM | > 100 µM | > 100 µM |  | > 100 µM | > 100 µM | > 100 µM | > 100 µM | > 100 µM | > 100 µM |  | 9.38 µM and 32.1 µM | 82.4 µM and 29.3 µM
COc1cc2cnc3c4cc(OC)c(OC(C)C)cc4ccc3c2cc1OC | > 100 µM | > 100 µM | > 100 µM |  | > 100 µM | > 100 µM | > 100 µM | > 100 µM | > 100 µM | > 100 µM | > 100 µM |  | 
COc1cc(/C=N/n2c(C)n[nH]c2=O)cc(OC)c1OC | > 100 µM | > 100 µM | > 100 µM | > 100 µM | > 100 µM | > 100 µM | > 100 µM |  |  | > 100 µM |  |  | 
O=C(CCN1CCCC1)c1ccc(Oc2ccc(F)cc2)cc1 | 90.9 µM | > 100 µM | > 100 µM | > 100 µM | > 100 µM | > 100 µM | > 100 µM |  |  | 30.1 µM | > 100 µM |  | 

From PubChem BioAssay (NCI)
